From patent publication US20100273772A1, “Bisaryl Alkynylamides as Negative Allosteric Modulators of Metabotropic Glutamate Receptor 5 (MGLUR5)” (Wyeth LLC, priority 2009, published 2010) come the findings set out here.

This assay deals with T1, rat mGluR5 receptor (Rattus norvegicus, UniProt P31424).
T1 construct: expressed in transfected cells; host or cells: HEK-293
T1 sequence (P31424 21-1203): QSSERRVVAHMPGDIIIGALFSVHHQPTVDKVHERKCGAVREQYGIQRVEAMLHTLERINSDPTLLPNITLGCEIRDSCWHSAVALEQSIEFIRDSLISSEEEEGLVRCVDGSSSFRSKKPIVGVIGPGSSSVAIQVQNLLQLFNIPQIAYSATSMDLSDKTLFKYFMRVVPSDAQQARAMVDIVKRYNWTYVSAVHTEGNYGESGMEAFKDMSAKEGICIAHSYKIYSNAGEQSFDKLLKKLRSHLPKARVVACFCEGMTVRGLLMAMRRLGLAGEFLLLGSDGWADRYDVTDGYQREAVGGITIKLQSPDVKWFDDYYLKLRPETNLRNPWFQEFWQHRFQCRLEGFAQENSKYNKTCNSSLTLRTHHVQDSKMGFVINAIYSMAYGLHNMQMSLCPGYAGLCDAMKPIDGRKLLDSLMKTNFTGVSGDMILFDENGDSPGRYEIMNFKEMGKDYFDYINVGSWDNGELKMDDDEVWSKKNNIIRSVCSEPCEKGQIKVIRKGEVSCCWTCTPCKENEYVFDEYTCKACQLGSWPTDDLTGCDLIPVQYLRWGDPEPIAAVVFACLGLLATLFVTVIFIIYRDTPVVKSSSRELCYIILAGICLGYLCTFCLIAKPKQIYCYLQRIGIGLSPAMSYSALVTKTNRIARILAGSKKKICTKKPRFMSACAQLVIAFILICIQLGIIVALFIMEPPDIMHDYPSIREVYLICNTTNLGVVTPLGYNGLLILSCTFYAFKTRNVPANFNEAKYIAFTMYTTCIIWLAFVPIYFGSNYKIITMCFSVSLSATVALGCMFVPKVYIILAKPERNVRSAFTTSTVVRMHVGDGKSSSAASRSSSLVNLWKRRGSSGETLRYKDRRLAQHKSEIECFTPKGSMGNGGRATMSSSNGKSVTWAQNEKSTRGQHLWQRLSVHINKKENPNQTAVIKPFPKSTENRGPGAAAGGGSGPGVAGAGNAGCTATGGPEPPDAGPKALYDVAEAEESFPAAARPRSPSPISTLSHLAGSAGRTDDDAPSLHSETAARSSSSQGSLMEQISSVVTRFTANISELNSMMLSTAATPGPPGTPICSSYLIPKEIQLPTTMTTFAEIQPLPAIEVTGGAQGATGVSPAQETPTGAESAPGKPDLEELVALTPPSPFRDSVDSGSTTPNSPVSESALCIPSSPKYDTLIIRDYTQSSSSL
The assay is described as follows: [3H]-MPEP binding HEK-293 cell membranes expressing a rat mGluR5 receptor. The settings on record: displacement of 4 nM [3H]-MPEP, HEK-293 cell membranes expressing rat mGluR5, 60 minute at room temperature; read-out: mGluR5 Ligand Binding DR Ki. How it is done:
TITLE: [^3H]-MPEP binding HEK-293 cell membranes expressing a rat mGluR5 receptor. PURPOSE: To identify high affinity compounds at the rat mGluR5 receptor based on their ability to displace the mGluR5 negative allosteric modulator, MPEP.
mGluR5 expressing HEK-293 cells are scraped off the plate, transferred to centrifuge tubes, and washed twice by centrifugation (2000 rpm for 10 min., 4° C.) in buffer (50 mM Tris pH 7.5). The resulting pellets are aliquoted and placed at −80° C. On the day of assay, the cells are thawed on ice, and resuspended in buffer. The binding assay is performed in a 96 well microtiter plate in a total volume of 250 μL. Non-specific binding is determined in the presence of 10 μM MPEP. Binding reaction includes a final radioligand [^3H]-MPEP concentration of 4 nM and 12-25 ug membrane protein per well. Following a 60 minute incubation at room temperature, the reaction is terminated by the addition of ice cold buffer and rapid filtration through a GF/B filter presoaked for 30 minutes in 0.5% PEI. Compounds are initially tested in a single point assay to determine percent inhibition at 10 μM. Subsequently, Ki values are determined for compounds defined to be active.
% inhibition and Ki values generated by GraphPad Prism and Excel Fit. IC50 values are calculated using GraphPad by fitting to a 1 or 2 site-binding model. Ki values are calculated from the apparent IC50 values using the Cheng-Prussof equation:
where [L]=concentration of free radioligand and Kd=dissociation constant of radioligand for the receptor. TITLE: Identification of metabotropic glutamate receptor 5 antagonists using a stable, sensitive fluorescence-based screening system PURPOSE: The aim of the research presented here was to develop a robust functional assay to measure changes in intracellular calcium, with the goal of identifying potent mGluR5 antagonists.
A word on the Ki: it is the dissociation constant of the complex between target and ligand, obtained from inhibition or displacement. For `COc1ccc(C(=O)N2CCc3nc[nH]c(=O)c3C2)cc1C#Cc1ccccn1` [Example 15, 6-[4-methoxy-3-(pyridin-2-ylethynyl)benzoyl]-5,6,7,8-tetrahydropyrido[4,3-d]pyrimidin-4(3H)-one], the Ki is 0.096 µM.

As to `COc1ccc(C(=O)N2Cc3ccccc3C2CC(C)(C)O)cc1C#Cc1ccccn1` (stereo not drawn) [Example 17, 1-{2-[4-methoxy-3-(pyridin-2-ylethynyl)benzoyl]-2,3-dihydro-1H-isoindol-1-yl}-2-methylpropan-2-ol], the Ki is 0.612 µM.

For `COc1ccc(C(=O)N2C3CCC2c2ccccc23)cc1C#Cc1ccccn1` [Example 18, 9-[4-methoxy-3-(pyridin-2-ylethynyl)benzoyl]-1,2,3,4-tetrahydro-1,4-epiminonaphthalene], the Ki amounted to 1.12 µM.

Regarding `COc1ccc(C(=O)N2CCc3cccc(C4CCN(S(C)(=O)=O)CC4)c3C2)cc1C#Cc1ccccn1` [Example 23, 2-[4-methoxy-3-(pyridin-2-ylethynyl)benzoyl]-8-[1-(methylsulfonyl)piperidin-4-yl]-1,2,3,4-tetrahydroisoquinoline], the Ki is above 10 µM.

For the compound `COc1ccc(C(=O)N2Cc3ccccc3C(Oc3ccc(C(F)(F)F)cc3)C2)cc1C#Cc1ccccn1` (stereo not drawn) [Example 24, 2-[4-methoxy-3-(pyridin-2-ylethynyl)benzoyl]-4-[4-(trifluoromethyl)phenoxy]-1,2,3,4-tetrahydroisoquinoline], the Ki turned out to be 0.52 µM.

Consider `COc1ccc(C(=O)N2CCc3ccccc3[C@H]2[C@@H]2CCCO2)cc1C#Cc1ccccn1` [Example 28, (1S)-2-[4-methoxy-3-(pyridin-2-ylethynyl)benzoyl]-1-[(2S)-tetrahydrofuran-2-yl]-1,2,3,4-tetrahydroisoquinoline], for which the Ki was found to be 0.178 µM.

In the case of `COc1ccc(C(=O)N2CCc3ccccc3C2Cc2ccccc2)cc1C#Cc1ccccn1` (stereo not drawn) [Example 30, 1-benzyl-2-[4-methoxy-3-(pyridin-2-ylethynyl)benzoyl]-1,2,3,4-tetrahydroisoquinoline], the inhibition constant Ki is 0.327 µM.

With `COc1ccc(C(=O)N2CCn3c(nnc3C(F)(F)F)C2)cc1C#Cc1ccccn1` [Example 49, 7-{[4-methoxy-3-(pyridin-2-ylethynyl)phenyl]carbonyl}-3-(trifluoromethyl)-5,6,7,8-tetrahydro[1,2,4]triazolo[4,3-a]pyrazine], the Ki amounted to 0.269 µM.

As for `COc1ccc(C(=O)N2CCNc3ccccc3C2)cc1C#Cc1ccccn1` [Example 56, 4-{[4-methoxy-3-(pyridin-2-ylethynyl)phenyl]carbonyl}-2,3,4,5-tetrahydro-1H-1,4-benzodiazepine], the Ki was 0.112 µM.

In the case of `O=C(c1ccc(OCC2CC2)c(C#Cc2ccccn2)c1)N1Cc2ccccc2C1` [Example 80, 2-{[4-(Cyclopropylmethoxy)-3-(pyridin-2-ylethynyl)phenyl]carbonyl}-2,3-dihydro-1H-isoindole], the Ki was found to be 0.189 µM.

Consider `O=C(c1ccc(C(F)(F)F)c(C#Cc2ccccn2)c1)N1CCc2cccnc2C1` [Example 99, 7-{[3-(Pyridin-2-ylethynyl)-4-(trifluoromethyl)phenyl]carbonyl}-5,6,7,8-tetrahydro-1,7-naphthyridine], for which the inhibition constant Ki is 0.034 µM.

In the case of `O=C(c1ccc(C(F)(F)F)c(C#Cc2ccccn2)c1)N1Cc2ccncc2C1` [Example 102, 2-{[3-(Pyridin-2-ylethynyl)-4-(trifluoromethyl)phenyl]carbonyl}-2,3-dihydro-1H-pyrrolo[3,4-c]pyridine], the Ki amounted to 0.12 µM.
